Consider six compounds from patent US5773014A, “Compositions and methods for inhibiting the formation of unwanted skin pigmentation” (priority 1996, dated 1998).

The test system of one series is tyrosinase. Briefly: in vitro tyrosinase inhibition (dopachrome formation from L-Dopa, spectrophotometry at 475 nm). The format is biochemical. The source says:
Tyrosinase catalyzes the formation of L-dopaquinone, and then dopachrome (in the eumelanin pathway), from L-Dopa. […] Comparisons in the rate at which this colored substance appears in the presence of a candidate whitening material indicate the effect of the material on enzymatic activity; complete absence of dopachrome reflects total inhibition of tyrosinase.

Another series deals with cells in a culture. Conditions: reported for other skin whiteners; cited from earlier work.
Another series relates to human skin explants. The following applies: 0.55% (w/v), positive control; L-Dopa 0.05M, 15 hours at 37° C.
A short description of a further series: solubility. The format is physicochemical. The following applies: read-out: max. solubility.

The structures appear in SMILES notation. In brackets after ≈: the same amount, converted by molar mass.

Procedure for human skin explants: The anti-tyrosinase activity of the invention was also evaluated using an ex vivo tissue model by exposing human skin explants to the material. […] Oxidation of L-Dopa by tyrosinase produces in the melanocyte an observable black pigment, which can easily be detected by optical microscopy. Tyrosinase activity can be measured by the intensity of the observed coloration.
A positive control and a negative control were also conducted in the same experiment. […] The explants, each exposed to a different test solution, were incubated with L-Dopa (0.05M) for 15 hours at 37° C. After fixation and inclusion in paraffin, the skin slices were colored with hemalun/eosin/safran and cresyl violet, and observed by optical microscopy under white light.

`O=c1cc(CO)occ1O` [kojic acid]: the “Tyrosinase Inhibition (%)” value came to 71% in the series on tyrosinase (concentration 0.1%) and 80% in the series with tyrosinase (concentration 1%).
With `O=C1O[C@H]([C@@H](O)CO)C(O)=C1O` [Ascorbic acid, ascorbic acid], the “Tyrosinase Inhibition (%)” value with tyrosinase (concentration 0.1%) is 66%. Further, the “IC50 (cytotoxicity, kills more than 50% of the cells in a culture)” value in the series with cells in a culture is 880 µg/mL.
As for `Oc1ccc(O)cc1` [hydroquinone], the “tyrosinase-inhibiting activity (in words)” value in the series with tyrosinase (tested at different concentrations (FIG. 1)) is on record as “exhibits no tyrosinase-inhibiting activity”. Moreover, the “formation of melanin in explant melanocytes” value in the series with human skin explants is “completely inhibited the formation of melanin”. Besides, in the series with cells in a culture, the “IC50 (cytotoxicity, kills more than 50% of the cells in a culture)” value was 5.5 µg/mL.
Turning to `CCCCC/C=C\C/C=C\CCCCCCCC(=O)O` [linoleic acid], the “IC50 (cytotoxicity, kills more than 50% of the cells in a culture)” value in the series on cells in a culture was 2.8 µg/mL.
As for `OC[C@H]1O[C@@H](Oc2ccc(O)cc2)[C@H](O)[C@@H](O)[C@@H]1O` [Pure Arbutin, arbutin], the “Tyrosinase Inhibition (%)” value is on record as 20% in the series with tyrosinase (concentration 0.2%), 25% in the series with tyrosinase (concentration 0.5%), 35% in the series with tyrosinase (concentration 2.5%) and 45% in the series with tyrosinase (concentration 5%). For the same compound, the solubility (in general, how much of the substance goes into solution per volume) in the series “solubility” came to 50 mg/mL (≈ 184 mM).
Regarding `O=C(O)CN(CCN(CC(=O)O)CC(=O)O)CC(=O)O` [EDTA, ethylenediaminetetraacetic acid], the “Tyrosinase Inhibition (%)” value in the series on tyrosinase (concentration 0.1%) is 0%; in the series with tyrosinase (concentration 1%), 47.3%; in the series on tyrosinase (concentration 5%), 78.9%.
